# Assay results: ChEMBL document CHEMBL1201862, “PubChem BioAssay data set” (2004)
# The source made the active and inactive calls.
# Key:
# [1] = system: HEK293; test: cells; format: functional, cell-based; settings: Homo sapiens
# [2] = molecular target: Nucleotide-binding oligomerization domain-containing protein 1 (Homo sapiens, UniProt Q9Y239); test: blockers of NOD1 pathway activity – revised, SAR follow-up (AID 2333); format: functional
# [3] = system: HEK293; test: inhibition of NOD1-driven NF-kB reporter – cell-based, luminescence, uHTS, primary screen (AID 1578); format: functional; settings: Homo sapiens
# [4] = reduction of Shn3 3'UTR-driven luciferase in osteoblasts – cell-based, Clone20 osteoblasts, firefly luciferase, cherry-picked, dose response (AID 624132); format: functional;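 also: firefly luciferase luminescence from reporter carrying the Shn3 3'UTR in osteoblasts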
# [5] = non-specific 3'UTR reporter inhibition in Clone20-Shn3RL – cell-based, Renilla luciferase, cherry-picked, counter-screen for Shn3 inhibitor project, dose response (AID 624133); format: functional
# [6] = system: HEK293; test: NOD2 signaling inhibitors in MDP-stimulated cells, cell-based, uHTS, luminescence (AID 2001); format: functional; settings: Homo sapiens
# [7] = loss of viability in HepG2 cells – cell-based, CellTiter-Glo, cherry-picked, cytotoxicity control for Shn3 inhibitor project, dose response (AID 624134); format: functional
# [8] = system: HEK293; test: cells; settings: Homo sapiens
# [9] = system: HEK293; test: cells; format: functional, cell-based; settings: Homo sapiens; remark: listed apart in the source
# [10] = system: INS1; test: INS-1E survival protection against cytokine death – cell-based, luminescence, retest, dose response (AID 449756); format: functional; settings: Rattus norvegicus;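 also: cell death triggered by IL-1 beta plus TNF-alpha plus IFN-gamma mixture; protective hits raise ATP signal compared with cytokine alone wells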
# [11] = molecular target: T1, Protein RecA (Mycobacterium tuberculosis, UniProt P9WHJ3); test: Fluorescence Cell-Free Homogeneous Dose Retest to Identify Inhibitors of RecA-Intein Splicing Activity. [Related pubchem assays (depositor defined):AID2097, AID2223, AID489010, AID492950]; format: functional
# T1 sequence (P9WHJ3 whole entry): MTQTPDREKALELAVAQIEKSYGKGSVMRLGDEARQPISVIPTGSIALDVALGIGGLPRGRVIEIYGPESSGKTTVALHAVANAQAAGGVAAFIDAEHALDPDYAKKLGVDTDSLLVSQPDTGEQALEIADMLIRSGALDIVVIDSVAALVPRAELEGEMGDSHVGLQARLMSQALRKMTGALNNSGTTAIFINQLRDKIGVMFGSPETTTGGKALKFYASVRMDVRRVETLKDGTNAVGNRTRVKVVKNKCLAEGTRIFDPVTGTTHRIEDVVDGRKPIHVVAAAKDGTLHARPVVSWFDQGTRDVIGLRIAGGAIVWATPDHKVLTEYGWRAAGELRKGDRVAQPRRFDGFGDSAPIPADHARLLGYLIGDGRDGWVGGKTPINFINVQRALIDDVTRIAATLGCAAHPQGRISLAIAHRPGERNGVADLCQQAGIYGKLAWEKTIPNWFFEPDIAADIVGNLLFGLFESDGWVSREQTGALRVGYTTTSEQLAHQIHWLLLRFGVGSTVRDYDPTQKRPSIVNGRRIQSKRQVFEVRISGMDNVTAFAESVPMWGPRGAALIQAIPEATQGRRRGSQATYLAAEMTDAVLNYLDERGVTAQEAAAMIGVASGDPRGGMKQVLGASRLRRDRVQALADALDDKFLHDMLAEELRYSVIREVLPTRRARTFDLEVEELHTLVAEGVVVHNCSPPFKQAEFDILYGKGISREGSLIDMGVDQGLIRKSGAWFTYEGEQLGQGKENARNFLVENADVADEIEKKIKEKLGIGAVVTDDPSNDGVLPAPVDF
# [12] = molecular target: T2, Voltage-gated N-type calcium channel alpha-1B subunit/Amyloid beta A4 precursor protein-binding family A member 1 (Homo sapiens, UniProt Q00975+Q02410); format: protein assay
# T2 sequence (Q00975 whole entry): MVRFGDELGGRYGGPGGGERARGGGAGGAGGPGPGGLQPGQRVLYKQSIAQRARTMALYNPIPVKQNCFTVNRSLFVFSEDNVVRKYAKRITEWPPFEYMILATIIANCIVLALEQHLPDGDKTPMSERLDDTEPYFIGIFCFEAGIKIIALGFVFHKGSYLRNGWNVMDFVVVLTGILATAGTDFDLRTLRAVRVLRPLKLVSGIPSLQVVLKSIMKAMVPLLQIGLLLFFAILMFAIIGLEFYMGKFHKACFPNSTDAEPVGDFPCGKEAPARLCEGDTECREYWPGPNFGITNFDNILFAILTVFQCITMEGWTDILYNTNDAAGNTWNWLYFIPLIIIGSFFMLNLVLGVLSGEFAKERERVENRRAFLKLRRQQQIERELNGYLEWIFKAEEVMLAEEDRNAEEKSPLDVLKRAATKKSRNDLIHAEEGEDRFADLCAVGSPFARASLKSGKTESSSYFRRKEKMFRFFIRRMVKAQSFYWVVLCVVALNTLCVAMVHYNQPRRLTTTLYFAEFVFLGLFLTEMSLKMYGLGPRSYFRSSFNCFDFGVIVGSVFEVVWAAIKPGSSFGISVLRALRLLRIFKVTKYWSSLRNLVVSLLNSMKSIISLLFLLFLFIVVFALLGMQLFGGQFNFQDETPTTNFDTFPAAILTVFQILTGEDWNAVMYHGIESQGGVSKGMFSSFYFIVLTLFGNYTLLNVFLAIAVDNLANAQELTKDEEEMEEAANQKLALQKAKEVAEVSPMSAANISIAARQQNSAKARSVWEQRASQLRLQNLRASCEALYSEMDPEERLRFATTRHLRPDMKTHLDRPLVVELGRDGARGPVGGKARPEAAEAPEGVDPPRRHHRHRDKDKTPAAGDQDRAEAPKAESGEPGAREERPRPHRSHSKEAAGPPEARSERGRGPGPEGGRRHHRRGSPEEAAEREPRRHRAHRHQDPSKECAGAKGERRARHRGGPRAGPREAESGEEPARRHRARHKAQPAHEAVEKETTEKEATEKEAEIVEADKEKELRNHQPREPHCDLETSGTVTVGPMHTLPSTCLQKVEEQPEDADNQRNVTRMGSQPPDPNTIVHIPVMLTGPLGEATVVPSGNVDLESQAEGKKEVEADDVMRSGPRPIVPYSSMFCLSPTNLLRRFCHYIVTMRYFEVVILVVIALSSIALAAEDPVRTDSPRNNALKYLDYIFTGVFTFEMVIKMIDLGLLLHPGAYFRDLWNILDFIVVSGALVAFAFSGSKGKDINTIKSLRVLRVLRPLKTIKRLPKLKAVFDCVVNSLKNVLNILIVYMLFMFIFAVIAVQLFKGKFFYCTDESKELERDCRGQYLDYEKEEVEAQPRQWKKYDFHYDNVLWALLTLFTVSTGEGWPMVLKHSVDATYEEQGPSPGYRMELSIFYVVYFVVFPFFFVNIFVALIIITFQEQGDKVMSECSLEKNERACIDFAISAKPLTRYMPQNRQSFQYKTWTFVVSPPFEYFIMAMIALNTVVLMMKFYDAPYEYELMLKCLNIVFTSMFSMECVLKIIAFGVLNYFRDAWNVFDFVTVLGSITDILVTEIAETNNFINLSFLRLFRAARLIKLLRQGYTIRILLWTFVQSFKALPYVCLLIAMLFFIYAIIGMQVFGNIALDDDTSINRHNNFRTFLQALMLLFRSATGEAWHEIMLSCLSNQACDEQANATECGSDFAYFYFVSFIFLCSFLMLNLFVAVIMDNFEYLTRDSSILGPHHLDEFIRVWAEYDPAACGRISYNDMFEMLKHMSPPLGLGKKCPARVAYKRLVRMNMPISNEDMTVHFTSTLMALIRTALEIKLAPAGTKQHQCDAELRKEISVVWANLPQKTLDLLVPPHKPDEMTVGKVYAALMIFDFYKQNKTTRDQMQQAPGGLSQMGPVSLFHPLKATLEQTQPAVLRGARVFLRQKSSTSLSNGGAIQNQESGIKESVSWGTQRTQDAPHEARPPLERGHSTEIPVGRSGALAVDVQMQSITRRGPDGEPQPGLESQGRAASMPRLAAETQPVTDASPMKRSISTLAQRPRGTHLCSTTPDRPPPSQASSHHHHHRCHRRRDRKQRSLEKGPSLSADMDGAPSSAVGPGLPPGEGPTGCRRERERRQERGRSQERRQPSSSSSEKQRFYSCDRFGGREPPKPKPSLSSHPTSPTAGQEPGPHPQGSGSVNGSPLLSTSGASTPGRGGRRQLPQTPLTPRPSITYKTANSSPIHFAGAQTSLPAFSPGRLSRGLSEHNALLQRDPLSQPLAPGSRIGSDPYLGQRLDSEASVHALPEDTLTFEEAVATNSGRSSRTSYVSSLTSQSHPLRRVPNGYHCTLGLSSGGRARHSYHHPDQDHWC
# T2 sequence (Q02410 whole entry): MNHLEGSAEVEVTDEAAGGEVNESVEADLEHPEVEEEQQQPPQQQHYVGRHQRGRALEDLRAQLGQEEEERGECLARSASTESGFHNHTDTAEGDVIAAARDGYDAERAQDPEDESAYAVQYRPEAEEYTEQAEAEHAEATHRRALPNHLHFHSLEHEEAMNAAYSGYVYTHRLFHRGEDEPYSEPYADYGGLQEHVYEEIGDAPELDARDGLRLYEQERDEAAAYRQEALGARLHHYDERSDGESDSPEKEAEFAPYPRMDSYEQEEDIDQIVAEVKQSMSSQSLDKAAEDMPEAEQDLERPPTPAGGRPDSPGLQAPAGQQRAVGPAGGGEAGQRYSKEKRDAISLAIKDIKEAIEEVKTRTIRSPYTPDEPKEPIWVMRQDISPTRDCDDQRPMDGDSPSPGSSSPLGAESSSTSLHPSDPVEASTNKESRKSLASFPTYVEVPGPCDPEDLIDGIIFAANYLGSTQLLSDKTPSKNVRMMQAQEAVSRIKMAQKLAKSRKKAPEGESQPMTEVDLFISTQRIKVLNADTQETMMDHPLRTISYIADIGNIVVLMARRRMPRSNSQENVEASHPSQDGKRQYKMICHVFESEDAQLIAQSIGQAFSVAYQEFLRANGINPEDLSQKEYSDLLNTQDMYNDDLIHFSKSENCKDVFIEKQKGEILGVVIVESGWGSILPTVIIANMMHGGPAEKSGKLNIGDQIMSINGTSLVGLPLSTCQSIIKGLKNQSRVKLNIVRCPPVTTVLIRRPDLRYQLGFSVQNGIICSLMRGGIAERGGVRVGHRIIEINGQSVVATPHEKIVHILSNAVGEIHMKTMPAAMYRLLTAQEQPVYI
# [13] = molecular target: T2, Voltage-gated N-type calcium channel alpha-1B subunit/Amyloid beta A4 precursor protein-binding family A member 1; format: protein assay; remark: listed apart in the source
# [14] = molecular target: Bcl-2-like protein 1 (Homo sapiens, UniProt Q07817); test: blockers of BCLXL peptide binding – biochemical, fluorescence polarization, 1536-well, selectivity assay for MCL1 inhibitor project, dose response (AID 2218)
# Sequence of Bcl-2-like protein 1 (Q07817 whole entry): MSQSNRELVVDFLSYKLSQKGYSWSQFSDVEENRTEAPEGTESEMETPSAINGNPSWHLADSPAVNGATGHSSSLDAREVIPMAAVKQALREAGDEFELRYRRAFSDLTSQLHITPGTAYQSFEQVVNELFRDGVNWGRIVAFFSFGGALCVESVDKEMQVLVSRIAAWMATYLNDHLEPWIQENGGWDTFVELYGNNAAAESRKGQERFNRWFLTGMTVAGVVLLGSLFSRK
# [15] = molecular target: T3, Dual specificity protein phosphatase 3 (Homo sapiens, UniProt P51452); test: VHR1 phosphatase inhibitors, biochemical (AID 1878)
# T3 sequence (P51452 whole entry): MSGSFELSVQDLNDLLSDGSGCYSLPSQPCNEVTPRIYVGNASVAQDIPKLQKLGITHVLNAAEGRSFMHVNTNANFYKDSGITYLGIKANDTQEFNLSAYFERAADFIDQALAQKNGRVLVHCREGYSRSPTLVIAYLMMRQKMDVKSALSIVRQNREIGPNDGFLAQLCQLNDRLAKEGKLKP
# [16] = molecular target: Genome polyprotein (dengue virus type 2, UniProt P29990); test: flavivirus cap methylation enzyme inhibition – biochemical, confirmation dose response, primary screen (AID 588689); format: functional
# Sequence of Genome polyprotein (P29990 2492-3391 limits assumed): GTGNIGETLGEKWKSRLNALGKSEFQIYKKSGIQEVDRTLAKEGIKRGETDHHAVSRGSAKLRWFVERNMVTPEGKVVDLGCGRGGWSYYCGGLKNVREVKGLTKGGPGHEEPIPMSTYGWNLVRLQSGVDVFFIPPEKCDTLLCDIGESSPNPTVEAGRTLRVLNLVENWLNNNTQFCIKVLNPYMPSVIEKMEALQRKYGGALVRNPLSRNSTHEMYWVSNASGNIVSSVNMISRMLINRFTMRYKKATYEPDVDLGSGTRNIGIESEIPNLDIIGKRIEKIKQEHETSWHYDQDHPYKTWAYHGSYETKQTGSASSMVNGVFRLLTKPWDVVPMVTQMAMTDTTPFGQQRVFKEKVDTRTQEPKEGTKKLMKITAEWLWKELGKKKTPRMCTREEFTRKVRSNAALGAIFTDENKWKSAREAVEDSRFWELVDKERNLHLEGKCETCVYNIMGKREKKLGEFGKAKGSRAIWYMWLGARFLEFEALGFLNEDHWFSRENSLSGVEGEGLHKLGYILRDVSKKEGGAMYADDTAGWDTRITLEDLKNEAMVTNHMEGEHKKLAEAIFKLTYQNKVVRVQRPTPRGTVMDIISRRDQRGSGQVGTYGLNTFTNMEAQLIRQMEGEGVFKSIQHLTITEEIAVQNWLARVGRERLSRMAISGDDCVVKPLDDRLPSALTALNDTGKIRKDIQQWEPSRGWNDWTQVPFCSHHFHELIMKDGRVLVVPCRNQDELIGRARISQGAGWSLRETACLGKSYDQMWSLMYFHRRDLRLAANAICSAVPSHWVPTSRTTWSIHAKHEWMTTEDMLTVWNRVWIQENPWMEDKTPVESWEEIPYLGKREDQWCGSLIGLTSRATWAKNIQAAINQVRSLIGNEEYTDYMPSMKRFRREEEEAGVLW
# [17] = molecular target: Induced myeloid leukemia cell differentiation protein Mcl-1 (Homo sapiens, UniProt Q07820); test: blockers of MCL1 binding to BIM peptide – biochemical, fluorescence polarization, BIM-BH3 peptide, 1536-well, dose response (AID 2217)
# [18] = molecular target: T4, Replicative DNA helicase DnaB (Mycobacterium tuberculosis, UniProt P9WMR3); test: DnaB intein splicing inhibitors, dose response, biochemical, cell-free fluorescence (AID 449749); format: functional
# T4 sequence (P9WMR3 whole entry): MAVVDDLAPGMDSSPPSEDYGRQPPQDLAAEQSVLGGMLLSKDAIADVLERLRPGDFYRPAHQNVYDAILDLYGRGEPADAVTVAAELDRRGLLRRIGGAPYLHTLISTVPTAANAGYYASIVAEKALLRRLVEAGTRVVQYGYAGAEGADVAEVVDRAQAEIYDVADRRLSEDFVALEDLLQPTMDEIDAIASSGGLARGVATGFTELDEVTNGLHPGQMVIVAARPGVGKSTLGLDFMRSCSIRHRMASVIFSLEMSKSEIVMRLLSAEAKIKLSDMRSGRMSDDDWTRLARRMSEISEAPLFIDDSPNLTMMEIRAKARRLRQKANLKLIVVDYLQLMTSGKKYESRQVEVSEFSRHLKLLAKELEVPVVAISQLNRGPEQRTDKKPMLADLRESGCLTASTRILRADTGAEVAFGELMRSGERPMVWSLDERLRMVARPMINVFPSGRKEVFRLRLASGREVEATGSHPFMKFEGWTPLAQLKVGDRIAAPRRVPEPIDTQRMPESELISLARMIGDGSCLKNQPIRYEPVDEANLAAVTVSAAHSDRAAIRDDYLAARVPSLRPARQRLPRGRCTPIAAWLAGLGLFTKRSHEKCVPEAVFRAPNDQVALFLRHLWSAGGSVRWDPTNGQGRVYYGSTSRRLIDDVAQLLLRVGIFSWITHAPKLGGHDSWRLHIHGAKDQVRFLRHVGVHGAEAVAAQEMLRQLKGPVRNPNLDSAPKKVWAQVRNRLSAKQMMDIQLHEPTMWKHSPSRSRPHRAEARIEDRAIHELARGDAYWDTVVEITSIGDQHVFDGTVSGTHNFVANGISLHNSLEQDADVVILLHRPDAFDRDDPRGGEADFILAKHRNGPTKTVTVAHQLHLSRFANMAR
# [19] = molecular target: Dual specificity protein phosphatase 6 (Rattus norvegicus, UniProt Q64346); test: inhibition of rat DUSP6 enzyme activity – biochemical, in vitro, primary screen (AID 425)
# Sequence of Dual specificity protein phosphatase 6 (Q64346 whole entry): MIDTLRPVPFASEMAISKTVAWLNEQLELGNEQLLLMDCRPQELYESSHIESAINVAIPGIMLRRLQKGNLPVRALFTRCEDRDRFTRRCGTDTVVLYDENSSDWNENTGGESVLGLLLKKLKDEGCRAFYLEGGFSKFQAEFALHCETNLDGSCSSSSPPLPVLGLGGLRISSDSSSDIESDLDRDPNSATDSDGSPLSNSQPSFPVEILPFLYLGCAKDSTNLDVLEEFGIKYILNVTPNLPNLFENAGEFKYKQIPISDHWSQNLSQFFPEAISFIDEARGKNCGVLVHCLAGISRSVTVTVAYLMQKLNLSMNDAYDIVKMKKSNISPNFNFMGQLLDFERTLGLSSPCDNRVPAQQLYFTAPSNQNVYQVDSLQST
# [20] = molecular target: Beta-galactosidase (Escherichia coli, UniProt Q8VNN2); test: detection-enzyme interference by beta-gal modulators – biochemical, E. coli enzyme, set 3, artefact control for CCR6 antagonist project, dose response (AID 504712); format: functional
# [21] = molecular target: T3, Dual specificity protein phosphatase 3; test: VHR1 phosphatase inhibitors, primary screen, biochemical, absorbance, uHTS (AID 1654)
smiles,measurement,setting,value
CC1Sc2ccc(S(=O)(=O)N3CCC(C(=O)Nc4ccc(Cl)cc4)CC3)cc2NC1=O (stereo unspecified),IC50,[1],8.24 µM (active)
same,IC50,[2],3.11 µM (active)
same,EC50,[3],2.15 µM (active)
same,AC50,[4],2.42 µM (active)
same,AC50,[5],1.6 µM (active)
same,IC50,[6],3.93 µM (active)
same,AC50,[7],3.26 µM (active)
same,IC50,[8],7.68 µM (active)
same,IC50,[9],3.16 µM (active)
same,AC50,[10],4.55 µM (active)
O=C(CN1C(=O)/C(=C2\SC(=S)N(CCS(=O)(=O)O)C2=O)c2ccccc21)Nc1cccc(Br)c1,EC50,[11],7.59 µM (active)
same,IC50,[12],9.59 µM (active)
same,IC50,[13],> 50 µM (inactive)
same,IC50,[14],> 109 µM (not active)
same,IC50,[15],4.92 µM (active)
same,IC50,[16],21.6 µM (active)
same,IC50,[17],2 µM (active)
same,AC50,[18],12.4 µM (active)
same,IC50,[19],30 µM (active)
same,IC50,[20],> 66.6 µM (inactive)
same,IC50,[21],3.65 µM (active)
